The source of these data is patent US20240417403A1, “CRYSTALLINE FORMS OF QUINAZOLINE DERIVATIVES, PREPARATION, COMPOSITION AND USE THEREOF” (Hoffmann-La Roche Inc., priority 2021, published 2024).

Values after ≈ are worked out from the molar mass of the structure shown. Marks after values point to notes of the source that are not given here.

What all share (type): physicochemical
One data set is described as follows: Hygroscopicity by DVS. How it is done: DVS is measured via a SMS (Surface Measurement Systems) DVS Intrinsic. The relative humidity at 25° C. is calibrated against deliquescence point of LiCl, Mg(NO3)2 and KCl.
DVS isotherm plot was collected at 25° C. to investigate the selected solid forms stability as a function of humidity. Compared with amorphous freebase, the hygroscopicity of Freebase Type B, Fumarate Type A, Fumarate Type B and Fumarate Type E was lower under 80% RH/25° C.

The nature of data set [1]: TGA and DSC/mDSC thermal analysis (characterization of forms). The conditions noted are these: for TGA weight loss (%, temp.): to 150° C. As for the experimental part: In salt screening and evaluation and in polymorph study, TGA was performed using a TA Q500, TA Q5000 or Discovery 5500 TGA from TA Instruments. DSC or mDSC was performed using a TA Q200/Q2000 or Discovery 2500 DSC from TA Instruments.

Data set [2] is described as follows: Equilibrium solubility in pH 4.5 buffer. The following applies: 37° C., stirred 24 hours. As for the experimental part:
(§1) An Agilent 1260 HPLC instrument was utilized and detailed chromatographic conditions for purity and solubility analysis were listed in Table 6.
About 5˜10 mg of solids were suspended in pH 4.5 buffer to get a mixture. The suspensions were stirred for 24 hours, followed by centrifugation and filtration to obtain supernatants for HPLC test.

The nature of data set [3]: Mechanical stability (XRPD form change after grinding and tableting). How it is done: Mechanical stability of the solid forms was evaluated by monitoring the XRPD form change after grinding (˜5 min) and tableting (˜234 Mpa).
Data set [4] in a line: Slurry competition (interconversion of free base forms at different water activity). The following applies: slurry at 24 ±3° C. How it is done: Slurry competition experiments were performed to study the interconversion relationship between Freebase Type B and Freebase Type C. […] The inter-conversion relationship among anhydrate Freebase Type B and hydrates Type C/F/G was further investigated under different water activities at RT. the saturated solution of Freebase Type B was obtained via slurry of Freebase Type B at RT overnight in corresponding solvent systems. A mixture of Freebase Type B+C+F+G was added into corresponding saturated solution of Freebase Type B to form suspensions. The suspensions were sampled for XRPD after being stirred for four days at a speed of 750 rpm under RT.

Data set [5] in a line: Contact angle against water (wettability). The conditions noted are these: listed as Freebase amorphous. How it is done:
The wettability of the solid forms was evaluated by the contact angle against water.

A short description of data set [6]: Equilibrium solubility in pH 6.8 buffer. The following applies: 37° C., stirred 24 hours. As for the experimental part:
as §1
About 5˜10 mg of solids were suspended in pH 6.8 buffer to get a mixture. The suspensions were stirred for 24 hours, followed by centrifugation and filtration to obtain supernatants for HPLC test.

A short description of data set [7]: Bulk density, tap density and Carr index (flowability and compressibility). The conditions noted are these: listed as Freebase amorphous. How it is done:
Bulk density was determined by adding appropriate amount (m) of material into a 5 mL graduate cylinder and recording its apparent volume (v0). The bulk density was obtained by dividing the amount of material by its apparent volume of the unsettled material (ρ0=m/v0). For tap density, the cylinder was then tapped for 200 times. The tap density was then calculated by dividing the amount of material by its final tapped volume (ρ1=m/v1). Carr index=(ρ1−ρ0)/ρ1.
(§2) The results of amorphous freebase, Freebase Type F, Fumarate Type B and Fumarate Type E for flowability and compressibility were summarized in Table 30. Generally, powders with smaller Karl index would show better compressibility and flowability. And powders with smaller angle of repose would show better flowability.

Data set [8] can be described thus: Kinetic solubility in FaSSIF. The following applies: FaSSIF, 37 °C, thermodynamic from solid. How it is done: as §1
Kinetic solubility of amorphous freebase and Fumarate Type B/E was measured in FaSSIF to evaluate the solubility. […] After centrifugation, supernatants were collected for HPLC tests.

Data set [9] in a line: Angle of repose (flowability). The conditions noted are these: listed as Freebase amorphous.
Excerpt: Form the angle of repose on a fixed base with a retaining lip to retain a layer of powder on the base. Carefully build up a symmetrical cone of powder. Determine the angle of repose by measuring the height (h) and base radius (r) of the cone of powder and calculating the angle of repose a from the following equation α=tan^−1(h/r).
as §2

Data set [10] in a line: Solid state stability, 40° C./75% RH/open for 1 month (XRPD, HPLC purity). The following applies: 40° C., 75% RH, open. As for the experimental part:
as §1
To evaluate the solid state stability of the selected forms (amorphous freebase, Freebase Type F, Fumarate Type A and Fumarate Type B) samples were stored under 40° C./75% RH/open for 1 month. Stability samples were characterized by XRPD to check any solid form change and by HPLC to check purity change.

A short description of data set [11]: Equilibrium solubility in H2O. The conditions noted are these: 37° C., stirred 24 hours. As for the experimental part: as §1
About 5˜10 mg of solids were suspended in H2O to get a mixture. The suspensions were stirred for 24 hours, followed by centrifugation and filtration to obtain supernatants for HPLC test.

The next data set is described as follows: Crystal habit by PLM. From the text: The PLM images were captured with Carl Zeiss Axio Scope. A1 microscope at RT.
PLM was used to observe the crystal habit of the particles (amorphous freebase and Fumarate Type A).

Consider `COc1ccc2ncnc(Nc3ccc(Oc4cc5ncnn5cn4)c(C)c3)c2c1O[C@@H]1CCN(C)CC1(F)F` [Freebase Type B, (R)-N-(4-([1,2,4]triazolo[1,5-c]pyrimidin-7-yloxy)-3-methylphenyl)-5-((3,3-difluoro-1-methylpiperidin-4-yl)oxy)-6-methoxyquinazolin-4-amine], for which, in the data set “Hygroscopicity by DVS”, the “Hygroscopicity (in words)” value is on record as “slightly hygroscopic” and the “Weight change at 80% RH/25° C. by DVS” value was 0.2%. In data set [1] (free base forms, peak), the “DSC endotherm (° C., peak)” value stood at 169.4 °C. The “TGA weight loss (%, temp.)” value in [1] (free base forms) was 3.5 (to 150° C.) %. Moreover, the “Solubility in pH 4.5 buffer” value in [2] came to 0.3 mg/mL. Moreover, the “XRPD form change after grinding” value in data set [3] (grinding ~5 min) was “No”. Besides, in data set [3] (tableting ~234 Mpa), the “XRPD form change after tableting” value is recorded as “No”. Also, the “Critical water activity between Freebase Type B and Type C” value in data set [4] is reported as 0.8-1.

`COc1ccc2ncnc(Nc3ccc(Oc4cc5ncnn5cn4)c(C)c3)c2c1O[C@@H]1CCN(C)CC1(F)F` [amorphous freebase, (R)-N-(4-([1,2,4]triazolo[1,5-c]pyrimidin-7-yloxy)-3-methylphenyl)-5-((3,3-difluoro-1-methylpiperidin-4-yl)oxy)-6-methoxyquinazolin-4-amine]: the “Weight change at 80% RH/25° C. by DVS” value in “Hygroscopicity by DVS” (listed as Freebase amorphous) worked out at 4.2%. In addition, the Contact angle in data set [5] stood at 37.2°. In [6], the “Solubility in pH 6.8 buffer” value is 0.15 mg/mL. In addition, the Carr index in [7] ((ρ1−ρ0)/ρ1) is listed as 43.8%. In [7], this compound yielded a Bulk density of 0.23 g/mL. This compound showed a Tapped density in data set [7] (tapped 200 times) of 0.40 g/mL. Besides, in [1] (amorphous free base, starred value in DSC column), the “Tg, middle temperature” value is reported as 58.7* ° C. Further, the “TGA weight loss (%, temp.)” value in data set [1] (free base forms) is 1.9 (to 150° C.) %. Further, the solubility at 1 h in data set [8] (timepoint 1 h) came out at 280 µg/mL (≈ 510 µM). In addition, the concentration in solution in data set [8] (timepoint 2 h) (solubility at 2 h) came to 270 µg/mL (≈ 492 µM). Also, the concentration in solution in data set [8] (timepoint 24 h) (solubility at 24 h) was 260 µg/mL (≈ 474 µM). Moreover, the “Solubility in pH 4.5 buffer” value in data set [2] was determined as 0.18 mg/mL. Besides, the Angle of repose in data set [9] was found to be 39.9°. Moreover, the “Form Change” value in data set [10] (by XRPD) is given as “No”. In addition, the “Purity/Initial by HPLC area %” value in [10] (listed as Freebase amorphous) amounted to 99.2%. Besides, in data set [11], the “Solubility in H2O” value was 160 µg/mL (≈ 292 µM). Besides, the “Crystal habit of the particles” value in the data set “Crystal habit by PLM” is recorded as “irregular-shaped particles without defined boundary”.
